Among the test systems are A498 renal; COLO 205 colon; EKVX NSCLC; MALME-3M melanoma; OVCAR-5 ovarian; OVCAR-8 ovarian; RXF 393 renal; SF-539 CNS; SK-OV-3 ovarian; UACC-62 melanoma.
Experiment in all cases: inhibition of tumour cell growth, NCI panel, 48 h

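Briefly, cells in 96-well plates were exposed to five compound concentrations for 48 h, and endpoints were estimated by linear interpolation. GI50: concentration for 50% inhibition of growth. TGI: concentration producing complete growth inhibition.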

As for `Oc1c(Cl)cc(Cl)cc1C(c1cc(Cl)cc(Cl)c1O)C(Cl)(Cl)Cl`, the GI50 with A498 renal is 1.68 µM; in the assay on COLO 205 colon, 1.89 µM; with EKVX NSCLC, 1.61 µM; with MALME-3M melanoma, 2.8 µM; in the assay on OVCAR-5 ovarian, 3.27 µM; in the assay with OVCAR-8 ovarian, 3.12 µM. Also, the GI50 in the assay with RXF 393 renal was 2.38 µM; with SF-539 CNS, 3.17 µM; with SK-OV-3 ovarian, 3.01 µM; in the assay on UACC-62 melanoma, 0.73 µM. In addition, the TGI in the assay on A498 renal came out at 5.77 µM; with COLO 205 colon it was 4.76 µM; in the assay with EKVX NSCLC, 4.51 µM; in the assay with MALME-3M melanoma it was 7.2 µM; in the assay on OVCAR-5 ovarian, 14.5 µM; with OVCAR-8 ovarian, 15.7 µM. The TGI in the assay on RXF 393 renal stood at 6.66 µM; in the assay with SF-539 CNS it was 13 µM; in the assay with SK-OV-3 ovarian, 13.3 µM; with UACC-62 melanoma it was 10.6 µM.

On to `O=C(O)c1c(=O)cccc2ssc12`, for which the GI50 is 1.98 µM with A498 renal; 2 µM in the assay with COLO 205 colon; 1.35 µM with EKVX NSCLC; 2.22 µM in the assay on MALME-3M melanoma; 1.71 µM with OVCAR-5 ovarian; 1.76 µM with OVCAR-8 ovarian. Further, the GI50 is 1.91 µM in the assay on RXF 393 renal, 1.98 µM with SF-539 CNS, 1.74 µM in the assay with SK-OV-3 ovarian and 2.09 µM in the assay on UACC-62 melanoma. Further, the TGI with A498 renal turned out to be 3.54 µM; in the assay with COLO 205 colon, 3.91 µM; in the assay with EKVX NSCLC, 3.12 µM; in the assay with MALME-3M melanoma, 4.45 µM; in the assay on OVCAR-5 ovarian, 3.45 µM; in the assay with OVCAR-8 ovarian it was 3.18 µM. The TGI in the assay with RXF 393 renal was found to be 3.39 µM; with SF-539 CNS, 3.84 µM; with SK-OV-3 ovarian it was 3.26 µM; with UACC-62 melanoma, 4.59 µM.

Consider `O=C1OC(=O)C2CCCC3CCCC1C32` (stereo not drawn), for which the TGI in the assay on A498 renal, with COLO 205 colon, with EKVX NSCLC, in the assay on MALME-3M melanoma, in the assay on OVCAR-5 ovarian and with OVCAR-8 ovarian was > 100 µM throughout. Further, the TGI with RXF 393 renal, in the assay on SF-539 CNS, in the assay with SK-OV-3 ovarian and with UACC-62 melanoma was > 100 µM each time.

Take `CCOC(=O)C(CC/C=C\c1ccccc1)N1CCC[C@H]1C(=O)OC` (stereo partly drawn): the TGI with A498 renal, with COLO 205 colon, in the assay on EKVX NSCLC, with MALME-3M melanoma, with OVCAR-5 ovarian and in the assay on OVCAR-8 ovarian was > 100 µM throughout. Moreover, the TGI with RXF 393 renal, in the assay on SF-539 CNS, with SK-OV-3 ovarian and in the assay with UACC-62 melanoma was > 100 µM each time.

Consider `Cc1cc(-c2ccccn2)cc(C)c1/C=C/c1cncc(-c2nn[nH]n2)c1`, for which the GI50 with A498 renal, with COLO 205 colon, with EKVX NSCLC, with MALME-3M melanoma, with OVCAR-5 ovarian and in the assay on OVCAR-8 ovarian was > 25 µM each time. The GI50 with RXF 393 renal, with SF-539 CNS, in the assay with SK-OV-3 ovarian and in the assay on UACC-62 melanoma was > 25 µM throughout. Further, the TGI in the assay with A498 renal, in the assay on COLO 205 colon, in the assay on EKVX NSCLC, in the assay on MALME-3M melanoma, in the assay with OVCAR-5 ovarian and in the assay on OVCAR-8 ovarian was > 25 µM throughout. Moreover, the TGI with RXF 393 renal, in the assay on SF-539 CNS, in the assay on SK-OV-3 ovarian and with UACC-62 melanoma was > 25 µM in each case.

In the case of `CCCCCCCCCCCCCCCCCCOCC(CCP(=O)(CP(=O)(O)O)Oc1ccccc1)OCCCCCCCCCCCCCCCCCC` (stereo not drawn), the TGI with A498 renal, in the assay with COLO 205 colon, in the assay on EKVX NSCLC, with MALME-3M melanoma, in the assay on OVCAR-5 ovarian and in the assay on OVCAR-8 ovarian was > 100 µM in each case. The TGI in the assay with RXF 393 renal, in the assay with SF-539 CNS, with SK-OV-3 ovarian and in the assay with UACC-62 melanoma was > 100 µM each time.

Regarding `O=C1/C(=C/c2ccc(Cl)cc2)CCC/C1=C\c1ccc(Cl)cc1`, the GI50 with A498 renal is 2.3 µM; in the assay with COLO 205 colon, 4.17 µM; in the assay on EKVX NSCLC, > 100 µM; in the assay on MALME-3M melanoma, > 100 µM; in the assay on OVCAR-5 ovarian it was > 100 µM; in the assay with OVCAR-8 ovarian it was 3.64 µM. In addition, the GI50 in the assay with RXF 393 renal is 1.95 µM; with SF-539 CNS, 7.85 µM; in the assay with SK-OV-3 ovarian it was 9.84 µM; with UACC-62 melanoma it was 4.39 µM. In addition, the TGI with A498 renal is 8.69 µM; with COLO 205 colon, > 100 µM; in the assay on EKVX NSCLC, > 100 µM; with MALME-3M melanoma, > 100 µM; in the assay with OVCAR-5 ovarian, > 100 µM; with OVCAR-8 ovarian it was > 100 µM. Moreover, the TGI with RXF 393 renal was 3.66 µM; with SF-539 CNS, > 100 µM; with SK-OV-3 ovarian it was > 100 µM; in the assay with UACC-62 melanoma it was > 100 µM.

For `CC1=C(C(=O)Nc2cc(Cl)c3[nH]ncc3c2)C(c2ccc(C(F)(F)F)cc2)CC(=O)N1` (stereo not drawn), the GI50 is 11.7 µM with A498 renal; 14.8 µM in the assay with COLO 205 colon; > 25 µM in the assay on EKVX NSCLC; 13.1 µM with MALME-3M melanoma; > 25 µM with OVCAR-5 ovarian; > 25 µM in the assay with OVCAR-8 ovarian. Moreover, the GI50 in the assay with RXF 393 renal was 2.37 µM; in the assay on SF-539 CNS, 14.8 µM; with SK-OV-3 ovarian, > 25 µM; with UACC-62 melanoma, 19 µM. In addition, the TGI in the assay on A498 renal, in the assay on COLO 205 colon, with EKVX NSCLC, in the assay on MALME-3M melanoma, in the assay with OVCAR-5 ovarian and in the assay on OVCAR-8 ovarian was > 25 µM in each case. In addition, the TGI in the assay on RXF 393 renal, in the assay with SF-539 CNS, in the assay on SK-OV-3 ovarian and in the assay with UACC-62 melanoma was > 25 µM each time.

As to `Cc1cc2c(C(N)=O)c(N)n(-c3c(C)ccc(O)c3C)c2nc1C`, the GI50 in the assay with A498 renal is 7.5 µM; in the assay on COLO 205 colon it was 1.7 µM; with EKVX NSCLC, 21.8 µM; in the assay on MALME-3M melanoma, 3.08 µM; in the assay on OVCAR-5 ovarian it was 3.1 µM; with OVCAR-8 ovarian it was 3.12 µM. The results for the GI50 with RXF 393 renal, in the assay on SF-539 CNS and in the assay on SK-OV-3 ovarian were 0.12 µM, 0.434 µM and 12.2 µM, respectively. Moreover, the TGI in the assay with A498 renal is 24.3 µM; with COLO 205 colon, 11.7 µM; in the assay on EKVX NSCLC it was 98.7 µM; in the assay on MALME-3M melanoma it was 18.3 µM; in the assay on OVCAR-5 ovarian, 51.9 µM; in the assay on OVCAR-8 ovarian, 18 µM. Besides, the TGI in the assay with RXF 393 renal came out at 0.855 µM; in the assay on SF-539 CNS it was 2.88 µM; with SK-OV-3 ovarian, 89 µM.
